In patent US9040903B2, “Precursor selection using an artificial intelligence algorithm increases proteomic sample coverage and reproducibility” (Wisconsin Alumni Research Foundation, priority 2011, dated 2015):

B1: bone morphogenetic protein 4 (protein, UniProt P12644 293-408, looked up)
Bone morphogenetic protein 4: SPKHHSQRARKKNKNCRRHSLYVDFSDVGWNDWIVAPPGYQAFYCHGDCPFPLADHLNSTNHAIVQTLVNSVNSSIPKACCVPTELSAISMLYLDEYDKVVLKNYQEMVVEGCGCR

Assays:
[1] = system: mouse skeletal muscle myotubes; experiment: Immunoblot of mitochondrial proteins after iron chelation of myotubes; type: cell-based
[2] = system: human embryonic stem cells (ESCs); experiment: TMT 6-plex isobaric tag quantitation of human embryonic stem cells before and two days after BMP4 treatment (inSeq-triggered QuantMode scans); type: cell-based; conditions: two days post treatment
Experimental: To assess this decision node, a sample comprising three biological replicates of human embryonic stem cells (ESCs) was analyzed pre- and two days-post bone morphogenetic protein 4 (BMP4) treatment (i.e., TMT 6-plex, three pre-treatment and three post BMP4 treatment cell populations). BMP4, a growth factor that induces context-dependent differentiation in pluripotent stem cells, is widely used to study differentiation to biologically relevant cell lineages such as mesoderm and endoderm. […] Here the ratio of change between control and treatment cell lines measured in one QM scan is large (5.86) but not significant (P=0.067, Student's t-test with Storey correction) (34). Note significance testing was accomplished by assessing variation within the three biological replicates of both treatment and control cell lines. The measured ratio remains relatively unchanged (5.22 and 5.43) as reporter tag signal from additional quantitation scans are added; however, the corresponding P-values decrease to 0.014 and 0.012 when two or three quantitation scans are summed. […] Ideally this log2 ratio would be zero, indicating perfect biological replication; however, when only one quantitation scan is employed this ratio severely deviates from zero with decreasing tag intensity. To improve overall data quality and to omit potentially erroneous measurements arbitrary reporter signal cutoffs (dashed vertical line in FIG. 16B) can be employed. These cutoffs eliminate many low-abundance peptides which often represent proteins of interest. Summation of additional quantitation scans increases the average reporter tag intensity, raising nearly all of the protein measurements above the intensity cutoff value (74, 9, and 4 proteins omitted using one, two, and three quantification scans, respectively).
Human embryonic stem cells (line H1) were maintained in feeder independent media as previously described (Chen et al). […]
TMT quantification was performed using TagQuant within COMPASS. […]

Molecule	cell death ([1]; mouse myotube C2C12 cells, 100 μM)	decrease in mitochondrial proteins ([1]; mouse myotube C2C12 cells, 100 μM, 24 hrs)	levels of the mitochondrial voltage dependent anion channel (VDAC) ([1]; mouse skeletal muscle myotubes, FIG. 12)	loss of proteins involved in mitochondrial oxidative phosphorylation (OXPHOS) ([1]; mouse skeletal muscle myotubes, dose-dependent and time-dependent, FIG. 12)	ratio of change between control and treatment cell lines, peptide FCADHPFLFFIR (SEQ ID NO:3) from protein SERPINB8 ([2]; one QM scan, P=0.067)	ratio of change between control and treatment cell lines, peptide FCADHPFLFFIR (SEQ ID NO:3) from protein SERPINB8 ([2]; three quantitation scans summed, P=0.012)	ratio of change between control and treatment cell lines, peptide FCADHPFLFFIR (SEQ ID NO:3) from protein SERPINB8 ([2]; two quantitation scans summed, P=0.014)
CC(=O)N(O)CCCCCNC(=O)CCC(=O)N(O)CCCCCNC(=O)CCC(=O)N(O)CCCCCN [DFO, desferrioxamine]	without causing cell death	marked decrease in mitochondrial proteins	unchanging levels	induces loss of proteins involved in mitochondrial oxidative phosphorylation (OXPHOS)	–	–	–
B1	–	–	–	–	5.86	5.43	5.22
